Reference: PubChem BioAssay AID2060884 (Molecular Pharmacology Branch, DTP, NCI, 2025)
pIC50: −log10 of the molar value.

Test system: NCI-H929 complex spheroids, viability % test/control
Assay: Anticancer human tumor NCI-H929 cell line growth inhibition [RAS];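 note: compound exposure lasted seven days before viability was read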;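 for viability, T/C: 100% = DMSO vehicle control viability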
Settings: for pIC50: curve of first compound; for viability, T/C: stronger effect = lower value
Method in brief: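 Tumour cells grown as complex spheroids with HUVEC endothelial cells and mesenchymal stem cells, treated with RAS pathway inhibitor combinations. Each agent spans half-log steps from near clinical Cmax, or 10 microM where Cmax is unknown.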

[1] = second compound 0.000949 µM, first compound 0.0316 µM
[2] = second compound 0.000949 µM, first compound 0.1 µM
[3] = second compound 0.000949 µM, first compound 0.316 µM
[4] = second compound 0.000949 µM, first compound 1 µM
[5] = second compound 0.003 µM, first compound 0.0316 µM
[6] = second compound 0.003 µM, first compound 0.1 µM
[7] = second compound 0.003 µM, first compound 0.316 µM
[8] = second compound 0.003 µM, first compound 1 µM
[9] = second compound 0.00949 µM, first compound 0.0316 µM
[10] = second compound 0.00949 µM, first compound 0.1 µM
[11] = second compound 0.00949 µM, first compound 0.316 µM
[12] = second compound 0.00949 µM, first compound 1 µM
[13] = second compound 0.03 µM, first compound 0.0316 µM
[14] = second compound 0.03 µM, first compound 0.1 µM
[15] = second compound 0.03 µM, first compound 0.316 µM
[16] = second compound 0.03 µM, first compound 1 µM
[17] = second compound 0.0949 µM, first compound 0.0316 µM
[18] = second compound 0.0949 µM, first compound 0.1 µM
[19] = second compound 0.0949 µM, first compound 0.316 µM
[20] = second compound 0.0949 µM, first compound 1 µM
[21] = second compound 0.3 µM, first compound 0.0316 µM
[22] = second compound 0.3 µM, first compound 0.1 µM
[23] = second compound 0.3 µM, first compound 0.316 µM
[24] = second compound 0.3 µM, first compound 1 µM

CCC(CC)c1cc(NC2CCC(N)C2)n2nccc2n1 (centres undefined) + CCn1c(-c2cccnc2C(C)OC)c2c3cc(ccc31)N1CCOC(CC(NC(=O)C(C(C)C)N(C)C(=O)C3(F)CCN(C(=O)C#CC(C)(C)N(C)C)CC3)C(=O)N3CCCC(N3)C(=O)OCC(C)(C)C2)C1
pIC50 (second compound 0.000949 µM): 5.81 | pIC50 (second compound 0.003 µM): 5.80 | pIC50 (second compound 0.00949 µM): 5.81 | pIC50 (second compound 0.03 µM): 5.87 | pIC50 (second compound 0.0949 µM): 5.85 | pIC50 (second compound 0.3 µM): 5.95 | viability, T/C [1]: 102% | viability, T/C [2]: 92.6% | viability, T/C [3]: 92.5% | viability, T/C [4]: 79.5% | viability, T/C (second compound 0.000949 µM, first compound 3.16 µM): 0.2% | viability, T/C (second compound 0.000949 µM, first compound 10 µM): 0.2% | viability, T/C [5]: 100% | viability, T/C [6]: 98.8% | viability, T/C [7]: 93.5% | viability, T/C [8]: 82.1% | viability, T/C (second compound 0.003 µM, first compound 3.16 µM): 0.2% | viability, T/C (second compound 0.003 µM, first compound 10 µM): 0.19% | viability, T/C [9]: 102% | viability, T/C [10]: 96.5% | viability, T/C [11]: 92.5% | viability, T/C [12]: 80.1% | viability, T/C (second compound 0.00949 µM, first compound 3.16 µM): 0.2% | viability, T/C (second compound 0.00949 µM, first compound 10 µM): 0.18% | viability, T/C [13]: 97.3% | viability, T/C [14]: 93.8% | viability, T/C [15]: 93.5% | viability, T/C [16]: 67% | viability, T/C (second compound 0.03 µM, first compound 3.16 µM): 0.19% | viability, T/C (second compound 0.03 µM, first compound 10 µM): 0.2% | viability, T/C [17]: 98.1% | viability, T/C [18]: 96.4% | viability, T/C [19]: 89.2% | viability, T/C [20]: 70.4% | viability, T/C (second compound 0.0949 µM, first compound 3.16 µM): 0.22% | viability, T/C (second compound 0.0949 µM, first compound 10 µM): 0.22% | viability, T/C [21]: 102% | viability, T/C [22]: 96.7% | viability, T/C [23]: 94.3% | viability, T/C [24]: 55.1% | viability, T/C (second compound 0.3 µM, first compound 3.16 µM): 0.25% | viability, T/C (second compound 0.3 µM, first compound 10 µM): 0.22%

Nc1ccn(C2OC(CO)C(O)C2(F)F)c(=O)n1 (centres undefined) + CCn1c(-c2cccnc2C(C)OC)c2c3cc(ccc31)N1CCOC(CC(NC(=O)C(C(C)C)N(C)C(=O)C3(F)CCN(C(=O)C#CC(C)(C)N(C)C)CC3)C(=O)N3CCCC(N3)C(=O)OCC(C)(C)C2)C1
pIC50 (second compound 0.000949 µM): 8.21 | pIC50 (second compound 0.003 µM): 8.21 | pIC50 (second compound 0.00949 µM): 8.24 | pIC50 (second compound 0.03 µM): 8.22 | pIC50 (second compound 0.0949 µM): 8.26 | pIC50 (second compound 0.3 µM): 8.24 | viability, T/C (second compound 0.000949 µM, first compound 0.00316 µM): 105% | viability, T/C (second compound 0.000949 µM, first compound 0.01 µM): 10.1% | viability, T/C [1]: 0.99% | viability, T/C [2]: 0.68% | viability, T/C [3]: 0.75% | viability, T/C [4]: 0.74% | viability, T/C (second compound 0.003 µM, first compound 0.00316 µM): 103% | viability, T/C (second compound 0.003 µM, first compound 0.01 µM): 12.8% | viability, T/C [5]: 0.86% | viability, T/C [6]: 0.83% | viability, T/C [7]: 0.91% | viability, T/C [8]: 0.96% | viability, T/C (second compound 0.00949 µM, first compound 0.00316 µM): 96.3% | viability, T/C (second compound 0.00949 µM, first compound 0.01 µM): 6.3% | viability, T/C [9]: 1.25% | viability, T/C [10]: 0.77% | viability, T/C [11]: 0.75% | viability, T/C [12]: 0.72% | viability, T/C (second compound 0.03 µM, first compound 0.00316 µM): 99.8% | viability, T/C (second compound 0.03 µM, first compound 0.01 µM): 9.61% | viability, T/C [13]: 1.21% | viability, T/C [14]: 0.91% | viability, T/C [15]: 0.88% | viability, T/C [16]: 0.89% | viability, T/C (second compound 0.0949 µM, first compound 0.00316 µM): 92.5% | viability, T/C (second compound 0.0949 µM, first compound 0.01 µM): 3.76% | viability, T/C [17]: 1.08% | viability, T/C [18]: 0.91% | viability, T/C [19]: 0.76% | viability, T/C [20]: 0.75% | viability, T/C (second compound 0.3 µM, first compound 0.00316 µM): 103% | viability, T/C (second compound 0.3 µM, first compound 0.01 µM): 2.46% | viability, T/C [21]: 1.01% | viability, T/C [22]: 0.96% | viability, T/C [23]: 0.99% | viability, T/C [24]: 0.8%
